Results published in BindingDB's records for PubMed 35440138 (University of Strathclyde, 2022).

Tests used:
[1] = Inhibition of LPA-mediated ATX activation in human BJeH cells assessed as AKT phosphorylation level incubated for 30 mins by Western blot analysis
[2] = Inhibition of LPA-mediated ATX activation in human BJeH cells assessed as ERK phosphorylation level incubated for 30 mins by Western blot analysis

For `C[C@H](CCC(=O)N1CCC(Oc2ccc([B-](F)(F)F)cc2)CC1)[C@H]1CC[C@H]2C3[C@@H](O)C[C@@H]4C[C@H](O)CC[C@]4(C)[C@H]3CC[C@]12C` (some centres not stated), the EC50 [1] was 100 nM and the EC50 [2] was 100 nM.
